Data set [1] deals with redroot pigweed (Amaranthus retroflexus). The data set is described as follows: Postemergence herbicidal activity. In kind it is in vivo. To be noted: Amaranthus retroflexus, post-emergence, 336 h, post-emergent, 140 g ai/ha, after 14 days; read-out: % Control AMARE. The procedure:
(§1) Seeds or nutlets of the desired test plant species were planted in Sun Gro MetroMix® 306 planting mixture, which typically has a pH of 6.0 to 6.8 and an organic matter content of about 30 percent, in plastic pots with a surface area of 64 square centimeters. When required to ensure good germination and healthy plants, a fungicide treatment and/or other chemical or physical treatment was applied. The plants were grown for 7-21 days in a greenhouse with an approximate 15 hour photoperiod which was maintained at about 23-29° C. during the day and 22-28° C. during the night. Nutrients and water were added on a regular basis and supplemental lighting was provided with overhead metal halide 1000-Watt lamps as necessary. The plants were employed for testing when they reached the first or second true leaf stage. […] The concentrated stock solutions obtained were diluted with 20 mL of an aqueous mixture containing acetone, water, isopropyl alcohol, DMSO, Atplus 411F crop oil concentrate, and Triton® X-155 surfactant in a 48.5:39:10:1.5:1.0:0.02 v/v ratio to obtain spray solutions containing the highest application rates. […] Compound requirements are based upon a 12 mL application volume at a rate of 187 L/ha. Formulated compounds were applied to the plant material with an overhead Mandel track sprayer equipped with a […] nozzles calibrated to deliver 187 L/ha over an application area of 0.503 square meters at a spray height of 18 inches (43 cm) above the average plant canopy height. Control plants were sprayed in the same manner with the solvent blank. The treated plants and control plants were placed in a greenhouse as described above and watered by sub-irrigation to prevent wash-off of the test compounds. […] By applying the well-accepted probit analysis as described by J. Berkson in Journal of the American Statistical […], 48, 565 (1953) and by D.

In data set [2] the test system is velvetleaf (Abutilon theophrasti). The data set is described as follows: Postemergence herbicidal activity. To be noted: Abutilon theophrasti, post-emergence, 336 h, post-emergent, 140 g ai/ha, after 14 days; read-out: % Control ABUTH. The class given is in vivo. The procedure:
as §1

In data set [3] the test system is lambsquarter (Chenopodium album). The data set is described as follows: Postemergence herbicidal activity. The conditions noted are these: Chenopodium album, post-emergence, 336 h, post-emergent, 140 g ai/ha, after 14 days; read-out: % Control CHEAL. The class given is in vivo. On the procedure:
as §1

With `Nc1cc(-c2ccc(Cl)c(OC(F)F)c2F)nc(C(=O)O)c1Cl` [Compound 134, 4-Amino-3-chloro-6-(4-chloro-3-difluoromethoxy-2-fluorophenyl)pyridine-2-carboxylic acid], the melting point is 179 °C (dec.). For the same molecule, in data set [1], the pest or weed control at 140 g/ha is 100%. In data set [2], the pest or weed control at 140 g/ha came out at 95%. Besides, the pest or weed control at 140 g/ha in data set [3] was determined as 90%.

`COC(=O)c1nc(-c2c(F)cc(Cl)c(OC)c2F)cc(NC(C)=O)c1Cl` [Compound 40, 4-Acetylamino-3-chloro-6-(4-chloro-2,6-difluoro-3-methoxyphenyl)pyridine-2-carboxylic acid, methyl ester] yielded a melting point of 144 to 144.5 °C. For the same molecule, the pest or weed control at 140 g/ha in data set [1] turned out to be 95%. Moreover, the pest or weed control at 140 g/ha in data set [2] is 95%. In data set [3], the pest or weed control at 140 g/ha is 100%.

`COc1c(C)ccc(-c2cc(N)c(Cl)c(C(=O)O)n2)c1F` [Compound 119, 4-Amino-3-chloro-6-(2-fluoro-3-methoxy-4-methylphenyl)pyridine-2-carboxylic acid] returned a melting point of 178 to 179 °C. In addition, the pest or weed control at 140 g/ha in data set [1] amounted to 100%. For the same molecule, in data set [2], the pest or weed control at 140 g/ha worked out at 100%. The pest or weed control at 140 g/ha in data set [3] amounted to 95%.

`CN(C)c1c(Cl)ccc(-c2cc(N)c(Cl)c(C(=O)O)n2)c1Cl` [Compound 117, 4-Amino-3-chloro-6-[2,4-dichloro-3-(dimethylamino)phenyl]pyridine-2-carboxylic acid] returned a melting point of 177 to 178 °C. The pest or weed control at 140 g/ha in data set [1] was 100%. The pest or weed control at 140 g/ha in data set [2] worked out at 100%. The pest or weed control at 140 g/ha in data set [3] was determined as 100%.

`COC(=O)c1nc(-c2ccc(Cl)c(C(F)F)c2Cl)cc(NC(C)=O)c1Cl` [Compound 30, 4-Acetylamino-3-chloro-6-[2,4-dichloro-3-(difluoromethyl)phenyl]pyridine-2-carboxylic acid, methyl ester] returned a melting point of 152 to 153 °C. Also, in data set [1], the pest or weed control at 140 g/ha was determined as 90%. In data set [2], the pest or weed control at 140 g/ha is 100%. In addition, the pest or weed control at 140 g/ha in data set [3] was determined as 95%.

`COC(=O)c1nc(-c2ccc(Cl)c(C3CC3)c2F)cc(N)c1Cl` [Compound 81, 4-Amino-3-chloro-6-(4-chloro-3-cyclopropyl-2-fluorophenyl)pyridine-2-carboxylic acid, methyl ester] had a melting point of 135 to 136.5 °C. Besides, in data set [1], the pest or weed control at 140 g/ha is 100%. In addition, in data set [2], the pest or weed control at 140 g/ha came to 100%. For the same molecule, in data set [3], the pest or weed control at 140 g/ha came to 95%.

Molecule `CNc1c(Cl)ccc(-c2cc(N)c(Cl)c(C(=O)O)n2)c1F` [Compound 118, 4-Amino-3-chloro-6-[4-chloro-2-fluoro-3-(methylamino)phenyl]pyridine-2-carboxylic acid] gave a melting point of 185 to 186 °C. Moreover, the pest or weed control at 140 g/ha in data set [1] was 100%. Also, the pest or weed control at 140 g/ha in data set [2] is 100%. For the same molecule, the pest or weed control at 140 g/ha in data set [3] is 100%.

As for `COC(=O)c1nc(-c2ccc(F)c(F)c2F)cc(NC(C)=O)c1Cl` [Compound 33, 4-Acetylamino-3-chloro-6-(2,3,4-trifluorophenyl)pyridine-2-carboxylic acid, methyl ester], the melting point lay within 169 to 171 °C. Moreover, the pest or weed control at 140 g/ha in data set [1] is 95%. Besides, the pest or weed control at 140 g/ha in data set [2] was 95%. Further, in data set [3], the pest or weed control at 140 g/ha is 90%.

Molecule `COC(=O)c1nc(-c2ccc(F)c(C)c2F)cc(N)c1Cl` [Compound 47, 4-Amino-3-chloro-6-(2,4-difluoro-3-methylphenyl)pyridine-2-carboxylic acid methyl ester] had a melting point of 129 to 130 °C. Moreover, in data set [1], the pest or weed control at 140 g/ha is 100%. In addition, the pest or weed control at 140 g/ha in data set [2] was found to be 100%. Besides, the pest or weed control at 140 g/ha in data set [3] stood at 100%.

As a reminder, the melting point is the temperature, or range, at which the solid turns liquid.

The record behind these values is patent US20070179060A1, “6-(Poly-substituted aryl)-4-aminopicolinates and their use as herbicides” (priority 2006, published 2007).
